# Patent publication US20260200982A1, “HER RECEPTOR DERIVED PEPTIDES AND METHODS OF USE THEREOF” (Ramot at Tel-Aviv University Ltd., priority 2022, published 2026)
# The star is where a group is joined. Myristoyl = CCCCCCCCCCCCCC(=O)*
# Assays:
# [1] = system: MCF7 breast cancer cells; assay type: cell-based, human; conditions: 72 hours
# Description: (§1) Cell lines—Human breast cancer cell lines SKBR3 [Peles E et al. EMBO J. (1993) 12(3):961-71] and MCF7 [Faigenbloom L et al., Mol Syst Biol. (2015) 11(12):845] and human glioblastoma U87 [Goldberg L et al. Cancer Res. (2006) 66(24):11709-17] cell line, as well as Rat-1 fibroblast cells and H-Ras-transformed Rat-1 cells (EJ cells) [Marom M et al. J Biol Chem. (1995) 270(38):22263-70] and human Panc-1 and MIA PaCa-2 pancreatic cell lines (Rak R et al. Oncoscience. 2014 1(1):39-48; Weisz B et al. Oncogene (1999) 18, 2579±2588) were all grown in Dulbecco's modified Eagle's medium (DMEM; Biological Industries, Beithaemek, Israel). Human colorectal cancer cell lines DLD-1 (ATTC Cat No. CCL-221), HCT-116 (ATTC Cat No. CCL-247) and LNCaP prostate cancer cells were grown in Roswell Park Memorial Institute 1640 (RPMI 1640) medium and McCoy's 5A media, respectively (Sigma-Aldrich). All media were supplemented with antibiotics and 10% heat-inactivated fetal bovine serum (FBS; Gibco). Human breast cell line MCF10A [Bott A et al. Oncotarget. (2017) 8(27):43897-43914] was grown in Dulbeco's Modified Eagle's Medium/Nutrient Mixture F-12 HAM medium (DMEM F-12 HAM; Sigma-Aldrich), supplemented with antibiotics, 5% inactivated horse serum (HS; Invitrogen), 2 mM L-glutamine (Biological Industries, Beithaemek, Israel), 0.1 μg/ml cholera toxin (Sigma-Aldrich), 0.5 μg/ml hydrocortisone (Sigma-Aldrich), 10 μg/ml insulin (Biological Industries, Beithaemek, Israel) and 2 ng/ml EGF (R&D Systems). Cells were incubated at 37° C. in 5% CO2 in air, and the medium was changed every 3-4 days. Cells were passaged in trypsin/disodium ethylenediaminetetraacetic acid (Biological Industries, Beithaemek, Israel) when confluency reached 70%. One day prior to treatment the cells were plated at ~50% confluency in a medium supplemented with 10% FBS or 5% HS, accordingly.
# (§2) Methylene blue viability assay—Cells were plated in 96-wells plates at cell densities of 1.5×10^3 (EJ, DLD-1), 3×10^3 (Rat-1, HCT-116, U87), 5×10^3 (SKBR3, MCF7) and 6×10^3 (MCF10A) cells/well. […] Cell number determination was performed as described previously. IC-50 values were calculated using a non-linear regression model (logarithmic inhibitor vs. normalized response-variable slope) with the GraphPad Prism 6 software.
# [2] = system: SKBR3 breast cancer cells; assay type: cell-based, human; conditions: 72 hours
# Description: as §1, §2
# [3] = system: DLD-1 colon cancer cells; assay type: cell-based, human; conditions: 72 hours
# Description: as §1
# (§3) Methylene blue viability assay—Cells were plated in 96-wells plates at cell densities of 1.5×10^3 (EJ, DLD-1), 3×10^3 (Rat-1, HCT-116, U87), 5×10^3 (SKBR3, MCF7) and 6×10^3 (MCF10A) cells/well. On the following day, cells were treated as indicated, and grown for 72 hours. Cell number determination was performed as described previously. IC-50 values were calculated using a non-linear regression model (logarithmic inhibitor vs. normalized response-variable slope) with the GraphPad Prism 6 software.
# [4] = system: HCT-116 colon cancer cells; assay type: cell-based, human; conditions: 72 hours
# Description: as §1, §3
# [5] = system: non-cancerous (MCF10A) breast cell line; experiment: Methylene blue viability assay, MCF10A; assay type: cell-based, human; conditions: FIGS. 2A-C
# Description: as §1, §3
# [6] = target: T1, ErbB2-nucleolin complexes (Homo sapiens, UniProt P19338); experiment: Proximity Ligation Assay (PLA); assay type: cell-based; conditions: SKBR3 cells, 53 μM, 48 hours, FIG. 3A
# T1 construct: endogenous in cells; host or cells: SKBR3
# Method: Proximity Ligation Assay (PLA)—For proximity ligation assay (PLA) cells were plated in a 16-wells Nunc Lab-Tek glass Chamber Slide System (178599; Thermo Scientific) at a density of 3.5×10^3 cells/well. 2 hours post-seeding the cells were treated with 53 μM of either TAT peptide (SEQ ID NO: 2) or TAT-NLS peptide (SEQ ID NO: 3) and grown for 48 hours. Following fixation, cells were incubated with rabbit anti-ErbB2 and mouse anti-nucleolin antibodies. PLA was performed using the Duolink In-Situ PLA probes: anti-rabbit MINUS and anti-mouse PLUS, and the Duolink In-Situ Detection Reagents Red kit (DUO92005; DUO92001; DUO92008, respectively; Sigma-Aldrich), according to the manufacturer's instructions. Nuclei were stained using the Duolink In-Situ Mounting Medium with DAPI (DUO82040; Sigma-Aldrich). Slides were visualized 24 hours post-staining and images were obtained using an Olympus motorized inverted research microscope Model IX81 (60× magnification). Signal intensity was determined using ImageJ software.
# [7] = system: EGFR (ErbB1); experiment: Immunoblotting of cell lysates, EGFR phosphorylation; assay type: cell-based, human; conditions: SKBR3, DLD-1 and HCT116; 50 μM, 24 hours; FIG. 3B
# Method: (§4) Lysate preparation and immunoblotting—Cells were seeded at cell densities of 1.5×10^5 (DLD-1), 1.8×10^5 (HCT-116) and 2.5×10^5 (SKBR3) cells/well, treated as indicated and grown for 24 hours. Following, cells were lysed in solubilization buffer; the lysates were cleared by centrifugation and a boiling gel sample buffer was added. Proteins were resolved by SDS-polyacrylamide gel electrophoresis through 10% polyacrylamide gels, and were electrophoretically transferred to nitrocellulose membranes. Membranes were blocked in TBST buffer containing 6% milk, and blotted with primary antibodies. Following, a secondary antibody linked to horseradish peroxidase was added. Immunoreactive bands were detected with the enhanced chemiluminescence reagent Immobilon Crescendo Western HRP substrate (WBLUR0100; Merck Millipore).
# [8] = system: ErbB2; experiment: Immunoblotting of cell lysates, ErbB2 phosphorylation; assay type: cell-based, human; conditions: SKBR3, DLD-1 and HCT116; 50 μM, 24 hours; FIG. 3B
# Method: as §4
# [9] = system: DLD-1 cells; experiment: Colony formation assay, DLD-1; assay type: cell-based, human; conditions: 20 μM, 72 hours, FIG. 12
# Method: Colony formation assay—Cells were plated onto 12-well plate (6×10^4 cells/well) and treated with either PBS or myr-NLS at the IC50 concentration for 3 days. Cells were collected and replated in 10-cm plates (at 3 dilutions of 1:10, 1:20 and 1:40). After 7-14 days when visible and yet separated colonies were formed, the cells were fixed with 0.1% acetic acid in PBS, and stained with 0.4% crystal violet in 0.1% acetic acid. Total colonies area was calculated using the ImageJ program.
# In addition, a colony formation assay was conducted to further examine the anti-tumor effect of the myr-NLS (SEQ ID NO: 5), myr-NLS2 (SEQ ID NO: 15) and myr-NLS4 (SEQ ID NO: 17) peptides. To this end, DLD-1 cells were treated or untreated for 72 hours with 20 μM of the myr-peptides. Cells were then seeded at the same dilutions in new plates until colonies were formed.
# [10] = system: DLD-1 colon cancer tumor xenografts; experiment: Colon Tumor Growth in Nude Mice; assay type: in vivo; conditions: DLD-1 xenografts, 25 μg/100 μl PBS intraperitoneal daily, FIGS. 14A-C
# Method: Colon Tumor Growth in Nude Mice—Nude CD1-Nu mice (25-30 g) housed in barrier facilities on a 12-h light/dark cycle one week prior to the injection of tumor cells (day zero). On day zero, 5×10^6 DLD-1 cells were implanted subcutaneously just above the right femoral joint. Tumor size was measured every 3-4 days. When the tumors were apparently seen, the animals were divided randomly into three groups of mice [control vehicle treated, myr-NLS1 (SEQ ID NO: 5), myr-NLS4 (SEQ ID NO: 17)]. Treatment was performed by intraperitoneal injection of 25 μg in 100 μl PBS every day. Mice were weighed and tumors size was measured 3 times a week. At the end of the experiment, the mice were sacrificed, and the tumors were dissected and used for further analysis.
# T1 sequence (P19338 2-710 limits assumed, one chain of several): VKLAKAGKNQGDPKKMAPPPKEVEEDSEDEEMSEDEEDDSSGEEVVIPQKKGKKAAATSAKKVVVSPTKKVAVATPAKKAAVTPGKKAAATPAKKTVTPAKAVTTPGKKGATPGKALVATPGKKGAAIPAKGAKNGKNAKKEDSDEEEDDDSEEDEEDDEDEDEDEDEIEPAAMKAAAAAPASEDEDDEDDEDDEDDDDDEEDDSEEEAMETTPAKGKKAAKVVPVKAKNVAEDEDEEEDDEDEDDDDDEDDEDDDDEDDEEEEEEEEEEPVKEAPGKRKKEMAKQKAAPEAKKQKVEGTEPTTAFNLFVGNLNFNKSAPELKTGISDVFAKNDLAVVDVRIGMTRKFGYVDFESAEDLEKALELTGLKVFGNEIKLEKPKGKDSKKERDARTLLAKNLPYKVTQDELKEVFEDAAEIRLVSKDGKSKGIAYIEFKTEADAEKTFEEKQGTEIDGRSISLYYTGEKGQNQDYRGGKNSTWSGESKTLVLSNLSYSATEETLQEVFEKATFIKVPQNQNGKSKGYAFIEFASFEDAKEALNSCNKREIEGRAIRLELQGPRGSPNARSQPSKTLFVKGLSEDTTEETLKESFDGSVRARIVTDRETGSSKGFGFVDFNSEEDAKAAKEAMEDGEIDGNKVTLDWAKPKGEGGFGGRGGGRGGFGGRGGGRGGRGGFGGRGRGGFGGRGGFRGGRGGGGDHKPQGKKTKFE
Substance,cell growth of MCF7 breast cancer cells ([1]; FIGS. 2A-C),"IC50 on cell viability ([1]; MCF7, FIG. 2C)",cell growth of SKBR3 breast cancer cells ([2]; FIGS. 2A-C),"IC50 on cell viability ([2]; SKBR, FIG. 2C)",cell growth of DLD-1 colon cancer cells ([3]; FIGS. 2A-C),"IC50 on cell viability ([3]; DLD-1, FIG. 2C)",cell growth of HCT-116 colon cancer cells ([4]; FIGS. 2A-C),"IC50 on cell viability ([4]; HCT116, FIG. 2C)",viability of the non-cancerous cells MCF10 [5],interaction between the ErbB2 receptor and nucleolin (PLA) [6],interaction between the ErbB2 receptor and nucleolin (PLA) ([6]; listed as TAL-NLS),ErbB1 phosphorylation [7],ErbB2 phosphorylation [8],colony formation (total colonies area) [9],"tumor growth (tumor size, tumor weight) [10]"
GRKKRRQRRRPPQRRRHIVRKRTLRRLL [TAT-NLS],inhibited cell growth,49.5 µM,inhibited cell growth,83.1 µM,inhibited cell growth,40.2 µM,inhibited cell growth,27.7 µM,not affecting viability,reduced the interaction,disrupts the ErbB-nucleolin interaction,inhibited,inhibited,,
Myr-RRKSIKKKRALRRFL-OH (Myristoyl-RRKSIKKKRALRRFL-OH; SMILES CCCCCCCCCCCCCC(=O)N[C@@H](CCCNC(=N)N)C(=O)N[C@@H](CCCNC(=N)N)C(=O)N[C@@H](CCCCN)C(=O)N[C@@H](CO)C(=O)N[C@H](C(=O)N[C@@H](CCCCN)C(=O)N[C@@H](CCCCN)C(=O)N[C@@H](CCCCN)C(=O)N[C@@H](CCCNC(=N)N)C(=O)N[C@@H](C)C(=O)N[C@@H](CC(C)C)C(=O)N[C@@H](CCCNC(=N)N)C(=O)N[C@@H](CCCNC(=N)N)C(=O)N[C@@H](Cc1ccccc1)C(=O)N[C@@H](CC(C)C)C(=O)O)[C@@H](C)CC) [myr-NLS4],,,,,,,,,,,,,,fewer and smaller colonies,significantly reduced tumor cell growth
